Experimental data taken from patent publication US4469868A, “Alkylimidazo[1,2-c]pyrazolo[3,4-e]pyrimidines” (Warner-Lambert Company, priority 1982, dated 1984).
Where a name gives a salt, the structure may show the parent alone. Read-outs that look alike come from different tables or passages of the source.

Columns and labels:
[1] = conditioned avoidance-escape procedure (modified pole-climb avoidance); assay type: in vivo; settings: oral, male Wistar rat
Method: In order to further assess their usefulness, representative compounds of the invention were tested in a conditioned avoidance-escape procedure. In this test*, an animal (male Wistar rat) is conditioned to respond to a stimulus in order to avoid an unpleasant electrical shock. Should the animals fail to give the response in order to avoid the shock, an escape route is available so that it can escape the shock once it is delivered. Preferably, compounds will show variations between the dose that will supress conditioned avoidance and the dose that will suppress the escape response.
*Modification of the pole-climb avoidance paradigm described in Ann. NY Acad. Sci., 740, (1957).

[2] = Mouse Activity and Screen Test Procedure (MAST): inhibition of spontaneous locomotion and inverted screen test; assay type: in vivo, Swiss-Webster male mice; settings: ip, 1 h, intraperitoneal, one hour prior to testing, mice, locomotion over 60 minutes, read-out: Dose at which an overall dose rating of A was obtained
Description: The compound of the invention are new chemical substances which are useful as pharmaceutical agents for the treatment of psychoses. The antipsychotic activity of representative compounds of the invention was established by the Mouse Activity and Screen Test Procedure (MAST) described below.
ANIMALS: Nine unfasted Swiss-Webster male mice (Buckberg Labs) weighing 20-30 g are equally divided into three groups for each drug dose to be tested. That is, data for each dose level was generated by three separate groups of three mice each.
DRUGS: A minimum of three dose levels (10, 30, and 100 mg/kg) are tested for each drug. Treatments are administered intraperitoneally one hour prior to testing. All dosages are calculated as parent compound and given in volumes of […]. Compounds are dissolved or suspended in 0.2% Methocel. Control animals are injected with Methocel.
TESTING: A two part testing procedure is started one hour postinjection. First, the screen test is performed (see Pharmac. Biochem. Behav. 6, 351-353, 1977). Briefly this test consists of placing mice on individual wire screens which are then rotated 180 degrees at the start of a 60-second observation period. The number of mice falling off the inverted screen is recorded.
Immediately following the screen test, the final phase of testing is initiated by placing each group of three mice in one actophotometer (Life Sciences, 22, 1067-1076, 1978). The actophotometer consists of a cylindrical chamber whose center is occupied by another cylinder which contains the illumination for six photocells located on the perimeter of the chamber. Six light-beam interruptions equal one count. Locomotor activity is recorded by computer at 10-minute intervals for 60 minutes.
DATA: The data obtained from the screen test are expressed as percent of mice falling off the screen. Data derived from locomotor activity of drug treated mice are compared to the activity of vehicle treated animals and are expressed as percent inhibition of spontaneous locomotion. All percentages reported for inhibition of locomotion are based upon data accumulated for one hour. Both phases of testing are graded: A=60-100%; C=31-59%; and N=0-30%. An overall dose rating is obtained by the following criteria: […]
Utilizing this procedure, an overall dose rating of A was obtained for the noted compound at the indicated dose as reported in Table 1.

[3] = as above; assay type: in vivo, Swiss-Webster male mice; settings: po, Compound administered orally, mice, read-out: Dose at which an overall dose rating of A was obtained
[4] = suppression of conditioned avoidance, read-out: Oral ED50 Avoidance
[5] = suppression of escape response, read-out: Oral ED50 Escape

`CCC1=Nc2c(C)nn(CC)c2C2=NC(C)CN12` (centres unmarked) [R1=C2H5, R2=CH3, R3=C2H5, R4=H, R5=CH3, 1,5-Diethyl-7,8-dihydro-3,8-dimethyl-1H-imidazo[1,2-c]pyrazolo[3,4-e]pyrimidine] gave an ED50 [1, 4] of 9 mg/kg, an ED50 [1, 5] of 50 mg/kg and a minimal effective dose [2] of 100 mg/kg.

For `CCC1=Nc2c(C)nn(C)c2C2=NC(C)CN12` (centres unmarked) [R1=CH3, R2=CH3, R3=C2H5, R4=H, R5=CH3, 7,8-Dihydro-5-ethyl-1,3,8-trimethyl-1H-imidazo[1,2-c]pyrazolo[3,4-e]pyrimidine], the ED50 [1, 4] was 6.4 mg/kg and the ED50 [1, 5] was 66 mg/kg.

`CC1=Nc2c(C)nn(CC(F)(F)F)c2C2=NC(C)CN12` (centres unmarked) [R1=CF3CH2, R2=CH3, R3=CH3, R4=H, R5=CH3, 7,8-Dihydro-3,5,8-trimethyl-1-(2,2,2-trifluoroethyl)-1H-imidazo[1,2-c]pyrazolo[3,4-e]pyrimidine] showed a minimal effective dose [2] of 100 mg/kg.

With `CC1=Nc2c(C)nn(C)c2C2=N[C@H](C)CN12` [R1=CH3, R2=CH3, R3=CH3, R4=H, R5=CH3 (R-isomer), 7,8-Dihydro-1,3,5-trimethyl-1H-imidazo[1,2-c]-pyrazolo[3,4-e]pyrimidine (R-form)] the ED50 [1, 4] was under 65 mg/kg and the ED50 [1, 5] was under 65 mg/kg.

Compound `CC1=Nc2c(C)nn(C)c2C2=NC(C)CN12` (racemic) [R1=CH3, R2=CH3, R3=CH3, R4=H, R5=CH3 (Racemate), 7,8-dihydro-1,3,5,8-tetramethyl-1H-imidazo[1,2-c]pyrazolo[3,4-e]pyrimidine] has an ED50 [1, 4] of 10 mg/kg and an ED50 [1, 5] of 32 mg/kg.

Compound `CCc1nc2c(C)nn(C)c2c2nc(C)cn12` [5-Ethyl-1,3,8-trimethyl-1H-imidazo[1,2-c]pyrazolo[3,4-e]pyrimidine] has an ED50 [1, 4] of 8 mg/kg and an ED50 [1, 5] of 45 mg/kg.

`CCC1=Nc2c(C)nn(C)c2C2=NCC(C)N12` (centres unmarked) [R1=CH3, R2=CH3, R3=C2H5, R4=CH3, R5=H, 7,8-Dihydro-5-ethyl-1,3,7-trimethyl-1H-imidazo[1,2-c]pyrazolo[3,4-e]pyrimidine] showed an ED50 [1, 4] of 35 mg/kg, an ED50 [1, 5] of 52 mg/kg and a minimal effective dose [2] of 100 mg/kg.

`CCCn1nc(C)c2c1C1=NC(C)CN1C(C)=N2` (centres unmarked) [R1=n-C3H7, R2=CH3, R3=CH3, R4=H, R5=CH3, 7,8-Dihydro-3,5,8-trimethyl-1-n-propyl-1H-imidazo[1,2-c]pyrazolo[3,4-e]pyrimidine] gave an ED50 [1, 4] of 37 mg/kg, an ED50 [1, 5] of 90 mg/kg and a minimal effective dose [2] of 100 mg/kg.

`Cc1nn(C)c2c1N=C(C1CC1)N1CC(C)N=C21` (centres unmarked) [5-Cyclopropyl-7,8-dihydro-1,3,8-trimethyl-1H-imidazo[1,2-c]pyrazolo[3,4-e]pyrimidine] gave an ED50 [1, 4] of 11.5 mg/kg, an ED50 [1, 5] of 110 mg/kg and a minimal effective dose [2] of 100 mg/kg.

Work on `Cc1nn(C)c2c1N=CN1CCN=C21` [R1=CH3, R2=CH3, R3=H, R4=H, R5=H, 7,8-Dihydro-1,3-dimethyl-1H-imidazo[1,2-c]pyrazolo [3,4-e]pyrimidine] yielded an ED50 [1, 4] of 18 mg/kg, an ED50 [1, 5] of 54 mg/kg and a minimal effective dose [2] of 100 mg/kg.

With `CC1=Nc2c(C)nn(C)c2C2=NC(C)(C)CN12` [R1=CH3, R2=CH3, R3=CH3, R4=H2, R5=(CH3)2, 7,8-Dihydro-1,3,5,8,8-pentamethyl-1H-imidazo[1,2-c]pyrazolo[3,4-e]pyrimidine] the ED50 [1, 4] was 18 mg/kg and the ED50 [1, 5] was 120 mg/kg.

Work on `CC1=Nc2c(C)nn(C)c2C2=NC(C)C(C)N12` (centres unmarked) [R1=CH3, R2=CH3, R3=CH3, R4=CH3, R5=CH3, 7,8-dihydro-1,3,5,7,8-pentamethyl-1H-imidazo[1,2-c]pyrazolo[3,4-e]pyrimidine] yielded an ED50 [1, 4] of 20 mg/kg, an ED50 [1, 5] of 57 mg/kg and a minimal effective dose [2] of 100 mg/kg.

For `CC1=Nc2c(C)nn(C)c2C2=N[C@@H](C)CN12` [R1=CH3, R2=CH3, R3=CH3, R4=H, R5=CH3 (S-isomer), 7,8-Dihydro-1,3,5,8-tetramethyl-1H-imidazo[1,2-c]pyrazolo[3,4-e]pyrimidine (S-form)], the ED50 [1, 4] was 11.5 mg/kg, the ED50 [1, 5] was 20 mg/kg and the minimal effective dose [2] was 100 mg/kg.

Work on `Cc1nn(C)c2c1N=CN1CC(C)N=C21` (centres unmarked) [R1=CH3, R2=CH3, R3=H, R4=H, R5=CH3, 7,8-Dihydro-1,3,8-trimethyl-1H-imidazo[1,2-c]pyrazolo[3,4-e]pyrimidine] yielded an ED50 [1, 4] of 18 mg/kg, an ED50 [1, 5] of 56 mg/kg and a minimal effective dose [2] of 100 mg/kg.

`CC1=Nc2c(C)nn(C)c2C2=NCC(C)(C)N12` [R1=CH3, R2=CH3, R3=CH3, R4=(CH3)2, R5=H2, 7,8-Dihydro-1,3,5,7,7-pentamethyl-1H-imidazo[1,2-c]pyrazolo[3,4-e]pyrimidine] showed an ED50 [1, 4] of 32 mg/kg and an ED50 [1, 5] of 80 mg/kg.

`CCC1CN2C(C)=Nc3c(C)nn(C)c3C2=N1` (centres unmarked) [R1=CH3, R2=CH3, R3=CH3, R4=H, R5=C2H5, 8-ethyl-7,8-dihydro-1,3,5-trimethyl-1H-imidazo[1,2-c]pyrazolo[3,4-e]pyrimidine] showed an ED50 [1, 4] of 7.5 mg/kg and an ED50 [1, 5] of 32 mg/kg.

With `CCn1nc(C)c2c1C1=NCCN1C(C)=N2` [R1=C2H5, R2=CH3, R3=CH3, R4=H, R5=H, 1-Ethyl-7,8-dihydro-3,5-dimethyl-1H-imidazo[1,2-c]pyrazolo[3,4-e]pyrimidine] the ED50 [1, 4] was 10 mg/kg and the ED50 [1, 5] was 28 mg/kg.

Compound `CCC1=Nc2c(C)nn(C)c2C2=NCCN12` [R1=CH3, R2=CH3, R3=C2H5, R4=H, R5=H, 5-Ethyl-7,8-dihydro-1,3-dimethyl-1H-imidazo[1,2-c]pyrazolo[3,4-e]pyrimidine] has a minimal effective dose [3] of 90 mg/kg.

For `CC1=Nc2c(C)nn(C)c2C2=N[C@@H](C(C)C)CN12` [R1=CH3, R2=CH3, R3=CH3, R4=H, R5=i-C3H7 (S-isomer), 7,8-Dihydro-8-isopropyl-1,3,5-trimethyl-1H-imidazo[1,2-c]pyrazolo[3,4-e]pyrimidine dihydrochloride (S-form)], the ED50 [1, 4] was 20 mg/kg, the ED50 [1, 5] was 70 mg/kg and the minimal effective dose [2] was 100 mg/kg.

`CCn1nc(C)c2c1C1=NC(C)CN1C(C)=N2` (centres unmarked) [R1=C2H5, R2=CH3, R3=CH3, R4=H, R5=CH3, 7,8-Dihydro-1-ethyl-3,5,8-trimethyl-1H-imidazo[1,2-c]pyrazolo[3,4-e]pyrimidine] showed an ED50 [1, 4] of 5 mg/kg and an ED50 [1, 5] of 15 mg/kg.
